Source: publication PMC6979384, “Characterization of the plant homeodomain (PHD) reader family for their histone tail interactions” (Epigenetics & Chromatin, 2020)
Where no end group is shown, it is not given here. [ ]: non-standard residue; d: D form. Lys(Me3) = C[N+](C)(C)CCCC[C@H](N)C(=O)O

What was measured:
Assay in all cases: Histone peptide microarray
Type in all cases: binding, human
Conditions in all cases: histone peptide array
AIRE (PP) = tested on: AIRE (PP)
Procedure, shortened: (§1)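 Purified PHD finger domains fused to GST are screened against 293 synthetic histone peptides bearing one or several post-translational modifications. The protein is used at 0.5 μM, and the signal from four replicate arrays is averaged, with standard deviation given.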

BAZ2B = tested on: BAZ2B
Procedure, shortened: as §1

BPTF (PB) = tested on: BPTF (PB)
Procedure, shortened: as §1

CHD4 (PPCC) = tested on: CHD4 (PPCC)
Procedure, shortened: as §1

CHD5 (PCC) = tested on: CHD5 (PCC)
Procedure, shortened: as §1

CHD5 (PPCC) = tested on: CHD5 (PPCC)
Procedure, shortened: as §1

DIDO1 = tested on: DIDO1
Procedure, shortened: as §1

DPF2 (PPC2W2) = tested on: DPF2 (PPC2W2)
Procedure, shortened: as §1

ING1 = tested on: ING1
Procedure, shortened: as §1

ING2 = tested on: ING2
Procedure, shortened: as §1

ING3 = tested on: ING3
Procedure, shortened: as §1

ING4 = tested on: ING4
Procedure, shortened: as §1

ING5 = tested on: ING5
Procedure, shortened: as §1

KDM4C (TTP) = tested on: KDM4C (TTP)
Procedure, shortened: as §1

KDM5A (1) = tested on: KDM5A (1)
Procedure, shortened: as §1

KDM5A (3) = tested on: KDM5A (3)
Procedure, shortened: as §1

KDM5B (1) = tested on: KDM5B (1)
Procedure, shortened: as §1

KDM5B (3) = tested on: KDM5B (3)
Procedure, shortened: as §1

KDM7A = tested on: KDM7A
Procedure, shortened: as §1

MLL5 = tested on: MLL5
Procedure, shortened: as §1

MORC3 (CW) = tested on: MORC3 (CW)
Procedure, shortened: as §1

PHF13 = tested on: PHF13
Procedure, shortened: as §1

PHF21A = tested on: PHF21A
Procedure, shortened: as §1

PHF23 = tested on: PHF23
Procedure, shortened: as §1

PHF2 = tested on: PHF2
Procedure, shortened: as §1

PHF8 = tested on: PHF8
Procedure, shortened: as §1

PHRF1 (RP) = tested on: PHRF1 (RP)
Procedure, shortened: as §1

RAG2 = tested on: RAG2
Procedure, shortened: as §1

SP140L = tested on: SP140L
Procedure, shortened: as §1

TAF3 = tested on: TAF3
Procedure, shortened: as §1

TRIM66 (PB) = tested on: TRIM66 (PB)
Procedure, shortened: as §1

[1] = sheet "Array Heatmap", GST-tagged reader, total n = 4
[2] = GST-tagged AIRE (PP), arrays performed twice, n of 4
[3] = GST-tagged BAZ2B, arrays performed twice, n of 4
[4] = GST-tagged BPTF (PB = PHD + Bromodomain), arrays performed twice, n of 4
[5] = GST-tagged CHD4 (PPCC = Dual PHD + Dual Chromodomain), arrays performed twice, n of 4
[6] = GST-tagged CHD5 (PCC = PHD + Dual Chromodomain), arrays performed twice, n of 4
[7] = GST-tagged CHD5 (PPCC = Dual PHD + Dual Chromodomain), arrays performed twice, n of 4
[8] = GST-tagged DIDO1, arrays performed twice, n of 4
[9] = GST-tagged DPF2 (PPC2W2 = Dual PHD + C2W2-type Zn-finger), arrays performed twice, n of 4
[10] = GST-tagged ING1, arrays performed twice, n of 4
[11] = GST-tagged ING2, arrays performed twice, n of 4
[12] = GST-tagged ING3, arrays performed twice, n of 4
[13] = GST-tagged ING4, arrays performed twice, n of 4
[14] = GST-tagged ING5, arrays performed twice, n of 4
[15] = GST-tagged KDM4C (TTP = Tandem Tudor domain + PHD), arrays performed twice, n of 4
[16] = GST-tagged KDM5A (1), arrays performed twice, n of 4
[17] = GST-tagged KDM5A (3), arrays performed twice, n of 4
[18] = GST-tagged KDM5B (1), arrays performed twice, n of 4
[19] = GST-tagged KDM5B (3), arrays performed twice, n of 4
[20] = GST-tagged KDM7A, arrays performed twice, n of 4
[21] = GST-tagged MLL5, arrays performed twice, n of 4
[22] = GST-tagged MORC3 (CW = CW-type Zn-finger), arrays performed twice, n of 4
[23] = GST-tagged PHF13, arrays performed twice, n of 4
[24] = GST-tagged PHF21A, arrays performed twice, n of 4
[25] = GST-tagged PHF23, arrays performed twice, n of 4
[26] = GST-tagged PHF2, arrays performed twice, n of 4
[27] = GST-tagged PHF8, arrays performed twice, n of 4
[28] = GST-tagged PHRF1 (RP), arrays performed twice, n of 4
[29] = GST-tagged RAG2, arrays performed twice, n of 4
[30] = GST-tagged SP140L, arrays performed twice, n of 4
[31] = GST-tagged TAF3, arrays performed twice, n of 4
[32] = GST-tagged TRIM66 (PB = PHD + Bromodomain), arrays performed twice, n of 4

For “H3K79me3: H3 74-84 (IAQDF[Lys(Me3)]TDLRF; UniProt P68431 75-85, looked up, fragment) [Peptide H3K79me3]”, the “Array Heatmap signal, AIRE (PP)” value (AIRE (PP); [1]) was 0.4525, the “Array Heatmap signal, BAZ2B” value (BAZ2B; [1]) was 0.458 and the “Array Heatmap signal, BPTF (PB)” value (BPTF (PB); [1]) was 0.3567. The “Array Heatmap signal, CHD4 (PPCC)” value (CHD4 (PPCC); [1]) was 0.5886, the “Array Heatmap signal, CHD5 (PCC)” value (CHD5 (PCC); [1]) was 0.767 and the “Array Heatmap signal, CHD5 (PPCC)” value (CHD5 (PPCC); [1]) was 0.5544. The “Array Heatmap signal, DIDO1” value (DIDO1; [1]) was 0.7358, the “Array Heatmap signal, DPF2 (PPC2W2)” value (DPF2 (PPC2W2); [1]) was 0.6998 and the “Array Heatmap signal, ING1” value (ING1; [1]) was 0.5877. For the same substance, the “Array Heatmap signal, ING2” value (ING2; [1]) was 0.6086, the “Array Heatmap signal, ING3” value (ING3; [1]) was 0.4762 and the “Array Heatmap signal, ING4” value (ING4; [1]) was 0.4605. For the same substance, the “Array Heatmap signal, ING5” value (ING5; [1]) was 0.3656, the “Array Heatmap signal, KDM4C (TTP)” value (KDM4C (TTP); [1]) was 0.4877 and the “Array Heatmap signal, KDM5A (1)” value (KDM5A (1); [1]) was 0.4539. For the same substance, the “Array Heatmap signal, KDM5A (3)” value (KDM5A (3); [1]) was 0.4757, the “Array Heatmap signal, KDM5B (1)” value (KDM5B (1); [1]) was 0.6382 and the “Array Heatmap signal, KDM5B (3)” value (KDM5B (3); [1]) was 0.4402. For the same substance, the “Array Heatmap signal, KDM7A” value (KDM7A; [1]) was 0.3373, the “Array Heatmap signal, MLL5” value (MLL5; [1]) was 0.5385 and the “Array Heatmap signal, MORC3 (CW)” value (MORC3 (CW); [1]) was 0.3856. For the same substance, the “Array Heatmap signal, PHF13” value (PHF13; [1]) was 0.6042, the “Array Heatmap signal, PHF21A” value (PHF21A; [1]) was 0.4782 and the “Array Heatmap signal, PHF23” value (PHF23; [1]) was 0.5318. The “Array Heatmap signal, PHF2” value (PHF2; [1]) was 0.5812, the “Array Heatmap signal, PHF8” value (PHF8; [1]) was 0.3681 and the “Array Heatmap signal, PHRF1 (RP)” value (PHRF1 (RP); [1]) was 0.4811. For the same substance, the “Array Heatmap signal, RAG2” value (RAG2; [1]) was 0.2475, the “Array Heatmap signal, SP140L” value (SP140L; [1]) was 0.3582 and the “Array Heatmap signal, TAF3” value (TAF3; [1]) was 0.2594. For the same substance, the “Array Heatmap signal, TRIM66 (PB)” value (TRIM66 (PB); [1]) was 0.557.

With H3R2me1 + K4me2: H3 1-20 the “Array Heatmap signal, AIRE (PP)” value (AIRE (PP); [2]) was 0.3934, the “Array Heatmap signal, BAZ2B” value (BAZ2B; [3]) was 0.4449 and the “Array Heatmap signal, BPTF (PB)” value (BPTF (PB); [4]) was 0.3634. The “Array Heatmap signal, CHD4 (PPCC)” value (CHD4 (PPCC); [5]) was 0.6115, the “Array Heatmap signal, CHD5 (PCC)” value (CHD5 (PCC); [6]) was 0.8739 and the “Array Heatmap signal, CHD5 (PPCC)” value (CHD5 (PPCC); [7]) was 0.5419. For the same substance, the “Array Heatmap signal, DIDO1” value (DIDO1; [8]) was 0.7623, the “Array Heatmap signal, DPF2 (PPC2W2)” value (DPF2 (PPC2W2); [9]) was 0.7133 and the “Array Heatmap signal, ING1” value (ING1; [10]) was 0.6158. The “Array Heatmap signal, ING2” value (ING2; [11]) was 0.678, the “Array Heatmap signal, ING3” value (ING3; [12]) was 0.5383 and the “Array Heatmap signal, ING4” value (ING4; [13]) was 0.4775. For the same substance, the “Array Heatmap signal, ING5” value (ING5; [14]) was 0.3522, the “Array Heatmap signal, KDM4C (TTP)” value (KDM4C (TTP); [15]) was 0.4903 and the “Array Heatmap signal, KDM5A (1)” value (KDM5A (1); [16]) was 0.4465. The “Array Heatmap signal, KDM5A (3)” value (KDM5A (3); [17]) was 0.6755, the “Array Heatmap signal, KDM5B (1)” value (KDM5B (1); [18]) was 0.6024 and the “Array Heatmap signal, KDM5B (3)” value (KDM5B (3); [19]) was 0.6308. The “Array Heatmap signal, KDM7A” value (KDM7A; [20]) was 0.344, the “Array Heatmap signal, MLL5” value (MLL5; [21]) was 0.577 and the “Array Heatmap signal, MORC3 (CW)” value (MORC3 (CW); [22]) was 0.6321. The “Array Heatmap signal, PHF13” value (PHF13; [23]) was 0.6859, the “Array Heatmap signal, PHF21A” value (PHF21A; [24]) was 0.4826 and the “Array Heatmap signal, PHF23” value (PHF23; [25]) was 0.6929. For the same substance, the “Array Heatmap signal, PHF2” value (PHF2; [26]) was 0.6699, the “Array Heatmap signal, PHF8” value (PHF8; [27]) was 0.4684 and the “Array Heatmap signal, PHRF1 (RP)” value (PHRF1 (RP); [28]) was 0.5537. The “Array Heatmap signal, RAG2” value (RAG2; [29]) was 0.5456, the “Array Heatmap signal, SP140L” value (SP140L; [30]) was 0.3804 and the “Array Heatmap signal, TAF3” value (TAF3; [31]) was 0.4954. For the same substance, the “Array Heatmap signal, TRIM66 (PB)” value (TRIM66 (PB); [32]) was 0.6589.

For “H3R2me1 + K4me3 + K9ac + K14ac + K18ac: H3 1-20”, the “Array Heatmap signal, AIRE (PP)” value (AIRE (PP); [2]) was 0.4342, the “Array Heatmap signal, BAZ2B” value (BAZ2B; [3]) was 0.5242 and the “Array Heatmap signal, BPTF (PB)” value (BPTF (PB); [4]) was 0.497. The “Array Heatmap signal, CHD4 (PPCC)” value (CHD4 (PPCC); [5]) was 0.5338, the “Array Heatmap signal, CHD5 (PCC)” value (CHD5 (PCC); [6]) was 0.7637 and the “Array Heatmap signal, CHD5 (PPCC)” value (CHD5 (PPCC); [7]) was 0.5534. For the same substance, the “Array Heatmap signal, DIDO1” value (DIDO1; [8]) was 0.9369, the “Array Heatmap signal, DPF2 (PPC2W2)” value (DPF2 (PPC2W2); [9]) was 0.7016 and the “Array Heatmap signal, ING1” value (ING1; [10]) was 0.6321. For the same substance, the “Array Heatmap signal, ING2” value (ING2; [11]) was 0.7542, the “Array Heatmap signal, ING3” value (ING3; [12]) was 0.5459 and the “Array Heatmap signal, ING4” value (ING4; [13]) was 0.4735. The “Array Heatmap signal, ING5” value (ING5; [14]) was 0.3861, the “Array Heatmap signal, KDM4C (TTP)” value (KDM4C (TTP); [15]) was 0.6022 and the “Array Heatmap signal, KDM5A (1)” value (KDM5A (1); [16]) was 0.4772. The “Array Heatmap signal, KDM5A (3)” value (KDM5A (3); [17]) was 1, the “Array Heatmap signal, KDM5B (1)” value (KDM5B (1); [18]) was 0.6999 and the “Array Heatmap signal, KDM5B (3)” value (KDM5B (3); [19]) was 0.6033. For the same substance, the “Array Heatmap signal, KDM7A” value (KDM7A; [20]) was 0.4977, the “Array Heatmap signal, MLL5” value (MLL5; [21]) was 0.7798 and the “Array Heatmap signal, MORC3 (CW)” value (MORC3 (CW); [22]) was 0.7963. For the same substance, the “Array Heatmap signal, PHF13” value (PHF13; [23]) was 0.6575, the “Array Heatmap signal, PHF21A” value (PHF21A; [24]) was 0.4576 and the “Array Heatmap signal, PHF23” value (PHF23; [25]) was 0.7743. For the same substance, the “Array Heatmap signal, PHF2” value (PHF2; [26]) was 0.7659, the “Array Heatmap signal, PHF8” value (PHF8; [27]) was 0.711 and the “Array Heatmap signal, PHRF1 (RP)” value (PHRF1 (RP); [28]) was 0.4594. For the same substance, the “Array Heatmap signal, RAG2” value (RAG2; [29]) was 0.5848, the “Array Heatmap signal, SP140L” value (SP140L; [30]) was 0.3363 and the “Array Heatmap signal, TAF3” value (TAF3; [31]) was 0.3972. For the same substance, the “Array Heatmap signal, TRIM66 (PB)” value (TRIM66 (PB); [32]) was 0.5379.
